Data reported in patent US12577217B2, “15-PGDH inhibitor” (KYORIN Pharmaceutical Co., Ltd., priority 2019, dated 2026).

Molecular target: T1, recombinant human 15-PGDH (Homo sapiens, UniProt P15428)
T1 construct: purchased R&D Systems
T1 sequence (P15428 1-266): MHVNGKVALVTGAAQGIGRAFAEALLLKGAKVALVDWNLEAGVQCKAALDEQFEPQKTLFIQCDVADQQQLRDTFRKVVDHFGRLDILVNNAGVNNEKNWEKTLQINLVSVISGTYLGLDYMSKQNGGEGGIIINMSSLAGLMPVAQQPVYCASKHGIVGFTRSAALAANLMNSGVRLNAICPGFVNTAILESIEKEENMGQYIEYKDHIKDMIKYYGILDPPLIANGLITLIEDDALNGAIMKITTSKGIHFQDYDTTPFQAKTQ
Assay: 15-PGDH enzyme inhibition test
Type: biochemical
Details: 4 nM recombinant human 15-PGDH, 30 μM PGE2, 1 mM NAD+, 60 minutes after starting the reaction; read-out: IC50 Value
In short: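 4 nM recombinant human enzyme pre-incubated with compound 12 min at room temperature in 50 mM Tris-HCl pH 8.0 with 0.01% Tween 20 and 0.01% bovine gamma globulin. Reaction started with 30 μM PGE2 and 1 mM NAD+, read after 60 min by fluorescence (ex 340/em 440 nm). IC50 from concentration-response curve.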

SMILES | IC50
COC(=O)c1cccc(N2CCc3cc(C(=O)N4CCCCC4)ccc32)c1 [Example 1-139] | < 10 nM
Cn1nc2cc(N3CCOc4cc(C(=O)N5CCC(F)(F)CC5)sc43)ccn2c1=O [Example 8-223] | 10 to 100 nM
Cn1nc2c(Cl)c(N3CCOc4cc(C(=O)N5CCCCC5)cnc43)ccn2c1=O [Example 1-29] | < 10 nM
CN1Cc2cc(N3CCOc4cc(SC5CCCCC5)cnc43)ccc2C1=O [Example 1-136] | 10 to 100 nM
O=C(c1cnc2c(c1)OCCN2c1ccc2nccnc2c1)N1CCCCC1 [Example 1-258] | < 10 nM
CNC(=O)c1ccc(N2CCOc3cc(C(=O)N4CC=CCC4)ccc32)cc1OC [Example 5-3] | < 10 nM
Cn1nc2cc(N3CCOc4cc(SC5CCCCC5)cnc43)ccn2c1=O [Example 1-110] | < 10 nM
Cn1oc2cc(N3CCOc4cc(C(=O)N5CCCCC5)cnc43)ccc2c1=O [Example 1-19] | < 10 nM
COCCn1nc2cc(N3CCCc4cc(C(=O)N5CCC[C@@H](CF)C5)cnc43)ccn2c1=O [Example 1-123] | < 10 nM
COCCOCCn1nc2cc(N3CCCc4cc(C(=O)N5CCC[C@@H](CF)C5)cnc43)ccn2c1=O [Example 1-125] | < 10 nM
Cn1nc2cc(N3CCOc4cc(C(=O)N5CCCC6(CCC6)C5)cnc43)ccn2c1=O [Example 8-67] | < 10 nM
O=C(c1cnc2c(c1)OCCN2c1ccc2c(c1)CN(CO)C2=O)N1CCC(F)(F)CC1 [Example 25-1, 5-(7-(4,4-Difluoropiperidine-1-carbonyl)-2,3-dihydro-4H-pyrido[3,2-b]oxazin-4-yl)-2-(hydroxymethyl)isoindolin-1-one] | < 10 nM
CCN1Cc2cc(N3CCCc4cc(C(=O)N5CCCC[C@H]5C)cnc43)ccc2C1=O [Example 8-78] | < 10 nM
O=C(c1cnc2c(c1)CCCN2c1ccc(Cl)cc1)N1CCCCC1 [Example 1-211] | 10 to 100 nM
CN1C(=O)C(C)(C)c2cc(N3CCOc4cc(C(=O)N5CCCCC5)cnc43)ccc21 [Example 1-249] | > 100 nM
CCN1Cc2cc(N3CCCc4cc(C(=O)N5CCC(C)CC5)cnc43)ccc2C1=O [Example 8-80] | < 10 nM
CCOc1noc2cc(N3CCOc4cc(C(=O)N5CCCCC5)cnc43)ccc12 [Example 8-215] | < 10 nM
Cn1nc2cc(N3CCCOc4cc(C(=O)N5CCCCCC5)cnc43)ccn2c1=O [Example 8-59] | < 10 nM
CNC(=O)c1ccc(N2CCOc3cc(C(=O)N4CCCCC4)cnc32)c(C)c1 [Example 6-13] | > 100 nM
Cn1nc2cc(N3CCOc4cc(C(=O)N5CCC[C@@H](CF)C5)cnc43)ccn2c1=O [Example 8-66] | < 10 nM
Cn1nc2cc(N3CCOc4cc(C(=O)N5CCC[C@H](O)C5)cnc43)ccn2c1=O [Example 8-38] | < 10 nM

SMILES | IC50
C[C@H]1CCN(C(=O)c2cnc3c(c2)OCCN3c2ccn3c(=O)n(C)nc3c2)C1 [Example 8-35] | < 10 nM
COCCN1Cc2cc(N3CCCc4cc(C(=O)N5CCC(F)(F)CC5)cnc43)ncc2C1=O [Example 1-86] | 10 to 100 nM
CCn1nc2cc(N3CCCc4cc(C(=O)N5CCN(C(C)=O)CC5)cnc43)ccn2c1=O [Example 8-153] | > 100 nM
Cn1ccc2ccc(N3CCOc4cc(C(=O)N5CCCCC5)cnc43)cc21 [Example 1-91] | 10 to 100 nM
Cn1nc2cc(N3CCOc4nc(C(=O)N5CCCCC5)ccc43)ccn2c1=O [Example 8-53] | < 10 nM
COc1c(C(=O)N2CCCCC2)ccc2c1OCCN2c1ccn2c(=O)n(C)nc2c1 [Example 1-100] | < 10 nM
Cn1nc2cc(N3CCCc4cc(C(=O)N5CCCCC5)ccc43)ccn2c1=O [Example 1-130] | < 10 nM
CCOCCn1nc2cc(N3CCCc4cc(C(=O)N5CCC[C@@H](CF)C5)cnc43)ccn2c1=O [Example 1-124] | < 10 nM
CCOCCN1Cc2cc(N3CCCc4cc(C(=O)N5CCCCC5)cnc43)ccc2C1=O [Example 1-63] | < 10 nM
O=C(c1cnc2c(c1)OCCN2c1ccccc1F)N1CCCCC1 [Example 1-238] | > 100 nM
Cn1cnc2cc(N3CCOc4cc(C(=O)N5CCCCC5)cnc43)cnc2c1=O [Example 1-38] | < 10 nM
Cn1cnc2cc(N3CCCc4cc(C(=O)N5CCC(F)(F)CC5)cnc43)cnc2c1=O [Example 1-191] | < 10 nM
CN1Cc2cc(N3CCOc4cc(C(=O)N5CC=CCC5)cnc43)ccc2C1=O [Example 8-191] | < 10 nM
Cn1nc2cc(N3CCOc4cc(C(=O)N5CCC[C@H]5C(N)=O)cnc43)ccn2c1=O [Example 36-1, (S)-1-(4-(2-Methyl-3-oxo-2,3-dihydro-[1,2,4]triazolo[4,3-a]pyridin-7-yl)-3,4-dihydro-2H-pyrido[3,2-b][1,4]oxazine-7-carbonyl)pyrrolidine-2-carboxamide] | > 100 nM
CCn1nc2cc(N3CCCc4cc(C(=O)N5CCCCCCC5)cnc43)ccn2c1=O [Example 8-150] | < 10 nM
COc1cc(N2CCOc3cc(C(=O)N4CCC(F)(F)CC4)ccc32)ccc1C(=O)O [Example 2-13] | < 10 nM
COc1ccc(CN2Cc3cc(N4CCOc5cc(C(=O)N6CCC(F)(F)CC6)ccc54)ccc3C2=O)c(OC)c1 [Example 1-150] | < 10 nM
O=C(c1cnc2c(c1)OCCN2c1ccc2c(c1)CN(C1CC1)C2=O)N1CCCCC1 [Example 1-224] | < 10 nM
COCCNC(=O)c1ccc(N2CCCc3cc(C(=O)N4CCCCC4)cnc32)cc1F [Example 1-60] | < 10 nM
O=C(NCC1COC1)c1ccc(N2CCCc3cc(C(=O)N4CCCCC4)cnc32)cc1F [Example 1-61] | < 10 nM
Cn1nc2cc(N3CCOc4cc(C(=O)N5CCCCC5)cnc43)ccn2c1=O [Example 1-21] | < 10 nM

SMILES | IC50
Cn1nc2cc(N3CCOc4cc(C(=O)N5CCCC5(C)C)cnc43)ccn2c1=O [Example 8-173] | 10 to 100 nM
O=C(c1cnc2c(c1)CCCN2c1ccc2c(=O)[nH]ccc2c1)N1CCCCC1 [Example 1-173] | < 10 nM
Cn1nc2cc(N3CCOCc4cc(C(=O)N5CCCCC5)cnc43)ccn2c1=O [Example 1-108] | 10 to 100 nM
Cn1nc2cc(N3CCCc4cc(C(=O)N5CCC5)cnc43)ccn2c1=O [Example 8-122] | < 10 nM
Cn1nc2cc(N3CCOc4cc(C(=O)N5CCC6(CC5)CC6)cnc43)ccn2c1=O [Example 8-45] | < 10 nM
COCCOCCn1nc2cc(N3CCCc4cc(C(=O)N5CCC[C@H](CF)C5)cnc43)ccn2c1=O [Example 1-118] | < 10 nM
Cn1ncc2cc(N3CCOc4cc(C(=O)N5CCCCC5)cnc43)ccc2c1=O [Example 1-218] | < 10 nM
COCCn1nc2cc(N3CCOc4cc(C(=O)N5CCCCC5)cnc43)ccn2c1=O [Example 1-28] | < 10 nM
Cn1cnc2cc(N3CCCc4cc(C(=O)N5CCCCC5)cnc43)cnc2c1=O [Example 1-190] | < 10 nM
O=C(c1ccc2c(c1)OCCN2c1ccc2c(=O)[nH]cnc2c1)N1CCC(F)(F)CC1 [Example 1-152] | < 10 nM
CCN1Cc2cc(N3CCCc4cc(C(=O)N5CCC[C@@H](F)C5)cnc43)ccc2C1=O [Example 8-83] | < 10 nM
O=C(O)c1ccc(N2CCOc3cc(C(=O)N4CCC(F)(F)CC4)cnc32)cc1 [Example 4-5] | < 10 nM
CCn1nc2cc(N3CCCc4cc(C(=O)N5CCCC[C@H]5C)cnc43)ccn2c1=O [Example 8-157] | 10 to 100 nM
Cn1nc2cc(N3CCOc4cc(C(=O)N5CCCC6CC65)cnc43)ccn2c1=O (single isomer, unassigned) [23-1 Isomer B, 7-(7-(2-Azabicyclo[4,1,0]heptane-2-carbonyl)-2,3-dihydro-4H-pyrido[3,2-b][1,4]oxazin-4-yl)-2-methyl-[1,2,4]triazolo[4,3-a]pyridin-3(2H)-one] | < 10 nM
Cn1nc2cc(N3CCCc4cc(C(=O)N5CCCC(F)(F)C5)cnc43)ccn2c1=O [Example 8-139] | < 10 nM
CCCCN1Cc2cc(N3CCCc4cc(C(=O)N5CCCCC5)cnc43)ccc2C1=O [Example 1-197] | < 10 nM
COC(=O)c1ccc2cc(N3CCOc4cc(C(=O)N5CCCCC5)cnc43)nn2c1 [Example 11-6] | < 10 nM
Cn1nc2cc(N3CCOc4cc(C(=O)N5CCCC6(CC6)C5)cnc43)ccn2c1=O [Example 8-42] | < 10 nM
CN1Cc2cc(N3CCCc4cc(C(=O)N5CCCCC5)cnc43)ncc2C1=O [Example 1-56] | 10 to 100 nM
